From ChEMBL document CHEMBL1201862, “PubChem BioAssay data set” (2004)
Calls of active or inactive are those of the source.

Legend:
[1] = THP-1 cell cytotoxicity, dose response, cytotoxicity control for non-replicating M. tuberculosis project (AID 489025); assay type: functional
[2] = cells; assay type: functional
[3] = molecular target: T1, Hexokinase HKDC1 (Homo sapiens, UniProt Q2TB90); test: inhibition of HKDC1 glucose phosphorylation – biochemical, W721R variant, dose response (AID 504729); assay type: functional
T1 sequence (Q2TB90 whole entry): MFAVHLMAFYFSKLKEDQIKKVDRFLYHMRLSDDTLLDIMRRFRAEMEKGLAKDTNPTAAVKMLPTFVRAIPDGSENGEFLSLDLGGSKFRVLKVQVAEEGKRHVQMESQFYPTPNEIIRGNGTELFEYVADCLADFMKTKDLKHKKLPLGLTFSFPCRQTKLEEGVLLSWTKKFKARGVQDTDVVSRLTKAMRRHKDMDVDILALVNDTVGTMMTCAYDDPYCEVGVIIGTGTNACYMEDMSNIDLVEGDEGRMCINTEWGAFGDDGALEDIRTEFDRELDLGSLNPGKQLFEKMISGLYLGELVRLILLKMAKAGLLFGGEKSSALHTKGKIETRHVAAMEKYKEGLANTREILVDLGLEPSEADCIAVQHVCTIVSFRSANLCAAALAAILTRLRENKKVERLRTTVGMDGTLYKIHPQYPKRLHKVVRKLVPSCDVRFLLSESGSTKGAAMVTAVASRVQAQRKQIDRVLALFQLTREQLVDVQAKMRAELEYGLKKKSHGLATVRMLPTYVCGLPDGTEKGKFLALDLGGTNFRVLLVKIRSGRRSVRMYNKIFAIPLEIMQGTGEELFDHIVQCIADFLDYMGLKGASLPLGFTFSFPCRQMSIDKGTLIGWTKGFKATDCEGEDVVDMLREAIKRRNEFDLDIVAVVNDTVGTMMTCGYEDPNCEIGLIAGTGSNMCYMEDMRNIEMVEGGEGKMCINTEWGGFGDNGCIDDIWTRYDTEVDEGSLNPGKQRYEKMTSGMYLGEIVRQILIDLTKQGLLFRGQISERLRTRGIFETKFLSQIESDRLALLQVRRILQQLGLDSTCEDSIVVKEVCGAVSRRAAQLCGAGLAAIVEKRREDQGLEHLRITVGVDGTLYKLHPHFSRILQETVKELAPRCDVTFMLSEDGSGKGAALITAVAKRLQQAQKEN

[4] = HEK-293T cell viability reduction – luminescence, B-cell screen hits, cytotoxicity control for BCR NF-kB inhibitor project, dose response (AID 489021); assay type: functional, cell-based;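 also: HEK-293T cells carrying an NF-kB luciferase reporter; cells exposed to compound for about 14 hours before viability readout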
[5] = molecular target: Peroxisome proliferator-activated receptor gamma/Nuclear receptor coactivator 2 (Homo sapiens, UniProt P37231); assay type: functional;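 also: agonist potency for raising coactivator recruitment to the receptor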
[6] = molecular target: Peroxisome proliferator-activated receptor gamma/Nuclear receptor coactivator 1 (Homo sapiens, UniProt P37231); assay type: functional;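 also: agonist potency as compounds enhance coactivator SRC-1 recruitment to PPARgamma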
[7] = molecular target: Peroxisome proliferator-activated receptor gamma/Nuclear receptor coactivator 3 (Homo sapiens, UniProt P37231); assay type: functional;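 also: agonist potency for raising coactivator recruitment to the receptor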
[8] = molecular target: T2, Bcl-2-like protein 10 (Homo sapiens, UniProt Q9HD36); test: Bcl-B/TR3 peptide binding disruption – biochemical, fluorescence polarization, FITC-TR3 peptide, selectivity assay for Bfl-1 inhibitor project, primary screen (AID 748);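 also: fluorescence polarization from a fluorescein-labelled TR3 peptide binding purified Bcl-B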
T2 sequence (Q9HD36 whole entry): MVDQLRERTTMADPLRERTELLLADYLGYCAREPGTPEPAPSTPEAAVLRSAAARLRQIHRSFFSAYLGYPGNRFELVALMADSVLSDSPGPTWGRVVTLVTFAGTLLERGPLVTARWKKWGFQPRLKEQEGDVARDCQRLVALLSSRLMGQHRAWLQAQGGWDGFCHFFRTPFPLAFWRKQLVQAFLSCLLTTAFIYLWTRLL

[9] = molecular target: DNA dC->dU-editing enzyme APOBEC-3A (Homo sapiens, UniProt P31941); test: A3A deaminase inhibition for selectivity – biochemical, dose response (AID 504722); assay type: functional
DNA dC->dU-editing enzyme APOBEC-3A, sequence (P31941 whole entry): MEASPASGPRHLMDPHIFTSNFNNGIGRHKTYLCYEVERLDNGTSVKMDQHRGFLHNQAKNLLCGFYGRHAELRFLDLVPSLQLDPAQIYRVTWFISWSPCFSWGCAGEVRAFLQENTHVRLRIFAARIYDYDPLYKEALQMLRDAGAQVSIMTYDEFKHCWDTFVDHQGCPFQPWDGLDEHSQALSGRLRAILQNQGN

[10] = molecular target: DNA dC->dU-editing enzyme APOBEC-3G (Homo sapiens, UniProt Q9HC16); test: Dose Response confirmation of small molecule APOBEC3G DNA Deaminase Inhibitors via a fluorescence-based single-stranded DNA deaminase assay. [Related pubchem assays (depositor defined):AID493012, AID493028]; assay type: functional
DNA dC->dU-editing enzyme APOBEC-3G, sequence (Q9HC16 whole entry): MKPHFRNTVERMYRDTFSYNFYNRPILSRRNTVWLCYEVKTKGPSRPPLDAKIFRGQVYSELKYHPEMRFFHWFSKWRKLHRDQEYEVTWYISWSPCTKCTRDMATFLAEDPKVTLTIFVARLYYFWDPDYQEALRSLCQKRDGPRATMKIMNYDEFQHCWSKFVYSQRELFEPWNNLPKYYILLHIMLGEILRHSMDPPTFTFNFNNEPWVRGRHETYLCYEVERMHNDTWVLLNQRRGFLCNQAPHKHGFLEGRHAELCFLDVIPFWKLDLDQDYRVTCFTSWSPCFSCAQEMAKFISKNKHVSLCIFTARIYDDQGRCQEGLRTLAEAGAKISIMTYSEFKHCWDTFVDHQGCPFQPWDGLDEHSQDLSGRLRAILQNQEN

[11] = molecular target: T3, Estrogen receptor beta (Homo sapiens, UniProt Q92731);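 also: recombinant ER-beta bound to coactivator SRC1 peptide in presence of estradiol agonist; inhibitors block coactivator peptide binding and lower the FRET signal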
T3 sequence (Q92731 whole entry): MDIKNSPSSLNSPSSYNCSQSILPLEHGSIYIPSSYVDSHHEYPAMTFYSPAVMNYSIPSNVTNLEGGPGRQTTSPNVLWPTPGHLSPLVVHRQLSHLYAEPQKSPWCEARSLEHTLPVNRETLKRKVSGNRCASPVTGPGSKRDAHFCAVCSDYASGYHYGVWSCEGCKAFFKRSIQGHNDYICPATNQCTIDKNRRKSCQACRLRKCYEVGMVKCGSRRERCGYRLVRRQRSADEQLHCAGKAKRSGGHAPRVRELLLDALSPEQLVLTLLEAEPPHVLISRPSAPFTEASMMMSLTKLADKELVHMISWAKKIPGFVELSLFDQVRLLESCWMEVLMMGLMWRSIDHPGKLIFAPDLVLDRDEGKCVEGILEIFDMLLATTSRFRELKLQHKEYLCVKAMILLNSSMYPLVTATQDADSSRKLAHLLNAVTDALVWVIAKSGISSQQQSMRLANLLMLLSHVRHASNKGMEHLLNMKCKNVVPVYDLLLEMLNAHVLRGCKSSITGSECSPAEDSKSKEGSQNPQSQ

[12] = molecular target: T3, Estrogen receptor beta; test: blockers of SRC-3 recruitment to ERβ – biochemical, ELISA, streptavidin-HRP readout, orthogonal assay, confirmation (AID 1060)
[13] = molecular target: T4, Bifunctional protein GlmU (Mycobacterium tuberculosis, UniProt P9WMN3); test: Inhibitors of Mycobacterial Glucosamine-1-phosphate acetyl transferase (GlmU). Secondary screen.; set-up: species or system Mycobacterium tuberculosis H37Rv
T4 sequence (P9WMN3 whole entry): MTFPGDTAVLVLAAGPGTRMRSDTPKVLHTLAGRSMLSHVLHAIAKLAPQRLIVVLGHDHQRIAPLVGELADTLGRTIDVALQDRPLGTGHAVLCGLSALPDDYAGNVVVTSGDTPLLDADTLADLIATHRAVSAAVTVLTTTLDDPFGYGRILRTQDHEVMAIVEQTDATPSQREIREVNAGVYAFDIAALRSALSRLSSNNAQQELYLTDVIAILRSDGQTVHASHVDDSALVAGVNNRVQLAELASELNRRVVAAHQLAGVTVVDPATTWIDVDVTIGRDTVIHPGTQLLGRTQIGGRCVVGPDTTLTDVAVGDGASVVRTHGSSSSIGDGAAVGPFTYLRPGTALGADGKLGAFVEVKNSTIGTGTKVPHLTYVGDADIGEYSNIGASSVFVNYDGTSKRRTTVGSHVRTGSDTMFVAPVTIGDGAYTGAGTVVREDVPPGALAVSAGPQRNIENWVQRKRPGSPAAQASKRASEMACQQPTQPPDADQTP

[14] = molecular target: Cytochrome P450 2D6 (Homo sapiens, UniProt P10635); test: qHTS Assay for Inhibitors and Substrates of Cytochrome P450 2D6. [Related pubchem assays: 410 ]; assay type: ADME; conditions: read-out: Potency
Cytochrome P450 2D6, sequence (P10635 whole entry): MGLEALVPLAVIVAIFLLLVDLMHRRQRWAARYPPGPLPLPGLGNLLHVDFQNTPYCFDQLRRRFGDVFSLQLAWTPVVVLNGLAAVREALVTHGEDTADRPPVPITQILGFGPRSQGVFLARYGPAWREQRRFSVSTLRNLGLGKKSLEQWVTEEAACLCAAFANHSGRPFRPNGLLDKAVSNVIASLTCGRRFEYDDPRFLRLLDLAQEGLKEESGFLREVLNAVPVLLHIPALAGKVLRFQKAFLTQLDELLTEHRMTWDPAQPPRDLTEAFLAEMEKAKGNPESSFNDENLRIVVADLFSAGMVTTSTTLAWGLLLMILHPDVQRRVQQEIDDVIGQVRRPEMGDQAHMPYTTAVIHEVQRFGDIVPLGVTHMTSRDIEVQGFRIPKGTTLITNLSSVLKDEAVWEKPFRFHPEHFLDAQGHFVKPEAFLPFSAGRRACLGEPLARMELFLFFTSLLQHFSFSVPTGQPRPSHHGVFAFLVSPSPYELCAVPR

[15] = test system: HEK293; test: inhibition of NOD1-driven NF-kB reporter – cell-based, luminescence, uHTS, primary screen (AID 1578); assay type: functional; conditions: Homo sapiens
[16] = test system: HEK293; test: cells; assay type: functional, cell-based; conditions: Homo sapiens
[17] = test system: HEK293; test: cells; assay type: functional, cell-based; conditions: Homo sapiens; remark: listed apart in the source
[18] = molecular target: Nucleotide-binding oligomerization domain-containing protein 2 (Homo sapiens, UniProt Q9HC29); test: inhibition of NOD2-driven NF-kB reporter – cell-based, luminescence, uHTS, HEK293 (AID 1566); assay type: functional
Nucleotide-binding oligomerization domain-containing protein 2, sequence (Q9HC29 whole entry, the tested form may be a part): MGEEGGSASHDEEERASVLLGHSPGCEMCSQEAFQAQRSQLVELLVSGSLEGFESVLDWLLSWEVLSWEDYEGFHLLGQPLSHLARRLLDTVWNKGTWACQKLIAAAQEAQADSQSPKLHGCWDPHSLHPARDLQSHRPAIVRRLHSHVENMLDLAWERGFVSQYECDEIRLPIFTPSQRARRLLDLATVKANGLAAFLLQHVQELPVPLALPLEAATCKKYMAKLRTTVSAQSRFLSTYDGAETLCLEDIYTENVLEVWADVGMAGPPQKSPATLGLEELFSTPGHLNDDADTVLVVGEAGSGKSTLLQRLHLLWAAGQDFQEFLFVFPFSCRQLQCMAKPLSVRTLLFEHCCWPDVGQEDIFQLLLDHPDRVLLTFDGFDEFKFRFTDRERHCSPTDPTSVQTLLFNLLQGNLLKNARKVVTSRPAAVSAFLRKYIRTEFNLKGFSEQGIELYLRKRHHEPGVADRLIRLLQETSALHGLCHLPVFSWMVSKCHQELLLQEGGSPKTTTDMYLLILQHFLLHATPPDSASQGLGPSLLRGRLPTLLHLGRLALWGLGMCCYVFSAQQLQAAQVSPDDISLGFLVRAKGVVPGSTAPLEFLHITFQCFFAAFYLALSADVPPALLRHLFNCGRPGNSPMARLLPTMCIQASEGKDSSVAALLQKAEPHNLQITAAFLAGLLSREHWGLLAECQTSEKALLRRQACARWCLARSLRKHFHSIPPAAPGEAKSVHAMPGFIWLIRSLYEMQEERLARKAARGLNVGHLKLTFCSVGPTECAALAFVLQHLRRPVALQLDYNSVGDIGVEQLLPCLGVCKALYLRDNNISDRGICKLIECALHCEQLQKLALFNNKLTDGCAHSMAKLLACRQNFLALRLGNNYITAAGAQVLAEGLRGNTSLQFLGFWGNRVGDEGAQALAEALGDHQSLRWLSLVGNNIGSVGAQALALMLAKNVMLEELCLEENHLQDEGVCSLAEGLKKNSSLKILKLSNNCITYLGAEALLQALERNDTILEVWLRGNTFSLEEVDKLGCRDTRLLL

[19] = test system: HEK293; test: NOD2 signaling inhibitors in MDP-stimulated cells, cell-based, uHTS, luminescence (AID 2001); assay type: functional; conditions: Homo sapiens
[20] = test system: HEK293; test: cells; assay type: functional, cell-based; conditions: Homo sapiens; remark: listed apart in the source
[21] = molecular target: Tumor necrosis factor (Homo sapiens, UniProt P01375); test: analog potency on TNFa NF-kB signaling – cell-based, revised, SAR follow-up (AID 2337); assay type: functional
Tumor necrosis factor, sequence (P01375 whole entry, the tested form may be a part): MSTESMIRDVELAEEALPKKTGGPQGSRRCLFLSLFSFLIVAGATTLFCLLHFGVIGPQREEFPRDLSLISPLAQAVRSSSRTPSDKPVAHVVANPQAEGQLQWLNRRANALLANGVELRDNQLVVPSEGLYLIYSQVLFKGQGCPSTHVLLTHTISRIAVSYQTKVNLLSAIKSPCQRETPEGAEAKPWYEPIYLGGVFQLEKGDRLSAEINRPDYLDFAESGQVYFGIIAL

[22] = molecular target: T5, Nucleotide-binding oligomerization domain-containing protein 1 (Homo sapiens, UniProt Q9Y239); test: blockers of NOD1 pathway activity – revised, SAR follow-up (AID 2333); assay type: functional
T5 sequence (Q9Y239 whole entry): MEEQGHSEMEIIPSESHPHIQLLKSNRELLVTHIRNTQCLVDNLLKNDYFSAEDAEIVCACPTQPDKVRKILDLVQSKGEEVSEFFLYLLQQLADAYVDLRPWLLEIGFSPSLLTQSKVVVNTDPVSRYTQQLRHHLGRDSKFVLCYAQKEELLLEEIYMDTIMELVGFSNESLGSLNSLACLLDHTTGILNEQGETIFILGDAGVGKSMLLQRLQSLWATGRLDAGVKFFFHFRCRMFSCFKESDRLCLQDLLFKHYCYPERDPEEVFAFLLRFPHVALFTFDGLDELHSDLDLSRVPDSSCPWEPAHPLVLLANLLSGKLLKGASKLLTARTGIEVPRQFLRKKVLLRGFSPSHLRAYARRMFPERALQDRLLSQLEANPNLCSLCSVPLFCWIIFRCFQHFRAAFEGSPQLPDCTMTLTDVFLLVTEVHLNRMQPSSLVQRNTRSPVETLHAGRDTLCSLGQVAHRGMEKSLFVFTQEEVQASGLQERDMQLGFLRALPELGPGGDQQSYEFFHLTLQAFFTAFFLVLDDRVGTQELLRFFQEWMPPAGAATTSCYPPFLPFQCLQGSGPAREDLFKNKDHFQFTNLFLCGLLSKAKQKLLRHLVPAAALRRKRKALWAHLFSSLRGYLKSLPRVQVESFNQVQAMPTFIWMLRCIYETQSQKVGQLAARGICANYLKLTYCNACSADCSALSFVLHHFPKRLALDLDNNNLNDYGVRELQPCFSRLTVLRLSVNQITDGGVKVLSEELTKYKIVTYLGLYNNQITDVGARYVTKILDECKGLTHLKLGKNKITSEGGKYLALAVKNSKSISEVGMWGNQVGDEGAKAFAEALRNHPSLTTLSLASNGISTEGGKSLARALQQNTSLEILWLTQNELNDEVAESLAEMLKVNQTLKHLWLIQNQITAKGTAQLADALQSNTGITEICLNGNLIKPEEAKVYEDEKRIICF

[23] = reduction of Shn3 3'UTR-driven luciferase in osteoblasts – cell-based, Clone20 osteoblasts, firefly luciferase, cherry-picked, dose response (AID 624132); assay type: functional;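 also: firefly luciferase luminescence from reporter carrying the Shn3 3'UTR in osteoblasts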
[24] = loss of viability in HepG2 cells – cell-based, CellTiter-Glo, cherry-picked, cytotoxicity control for Shn3 inhibitor project, dose response (AID 624134); assay type: functional
[25] = non-specific 3'UTR reporter inhibition in Clone20-Shn3RL – cell-based, Renilla luciferase, cherry-picked, counter-screen for Shn3 inhibitor project, dose response (AID 624133); assay type: functional
[26] = test system: HEK293; test: cells; conditions: Homo sapiens
[27] = molecular target: Nonstructural protein 1 (Influenza A virus, UniProt Q194T2); assay type: functional, Influenza A virus (A/California/07/2009(H1N1))
Nonstructural protein 1, sequence (Q194T2 whole entry): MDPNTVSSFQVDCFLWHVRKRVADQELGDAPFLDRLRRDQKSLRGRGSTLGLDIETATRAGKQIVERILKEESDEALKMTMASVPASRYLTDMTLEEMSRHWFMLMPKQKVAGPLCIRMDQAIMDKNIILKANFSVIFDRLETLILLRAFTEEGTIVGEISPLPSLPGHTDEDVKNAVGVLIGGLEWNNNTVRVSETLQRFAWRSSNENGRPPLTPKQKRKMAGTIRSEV

[28] = molecular target: Alkaline phosphatase, placental type (Homo sapiens, UniProt P05187); test: human placental alkaline phosphatase inhibition – biochemical, luminescence, confirmation (AID 1512); assay type: functional
Alkaline phosphatase, placental type, sequence (P05187 whole entry): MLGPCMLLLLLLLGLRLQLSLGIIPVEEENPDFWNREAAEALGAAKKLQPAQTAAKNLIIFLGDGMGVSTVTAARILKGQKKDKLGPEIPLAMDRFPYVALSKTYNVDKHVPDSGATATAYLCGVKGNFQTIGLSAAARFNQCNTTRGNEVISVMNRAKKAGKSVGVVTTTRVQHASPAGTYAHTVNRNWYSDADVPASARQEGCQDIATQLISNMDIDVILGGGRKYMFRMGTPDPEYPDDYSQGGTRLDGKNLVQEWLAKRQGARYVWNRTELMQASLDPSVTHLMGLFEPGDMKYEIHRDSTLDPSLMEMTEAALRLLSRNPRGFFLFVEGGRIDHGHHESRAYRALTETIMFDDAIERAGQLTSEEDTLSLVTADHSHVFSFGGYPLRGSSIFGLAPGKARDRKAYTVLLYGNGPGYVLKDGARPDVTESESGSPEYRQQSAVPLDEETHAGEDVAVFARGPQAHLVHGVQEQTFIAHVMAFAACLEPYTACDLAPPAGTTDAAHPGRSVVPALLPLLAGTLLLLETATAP

[29] = molecular target: T6, Alkaline phosphatase, tissue-nonspecific isozyme (Homo sapiens, UniProt P05186); test: potency against alkaline phosphatase TNAP – biochemical, luminescent, dose response, SAR follow-up (AID 1056)
T6 sequence (P05186 whole entry): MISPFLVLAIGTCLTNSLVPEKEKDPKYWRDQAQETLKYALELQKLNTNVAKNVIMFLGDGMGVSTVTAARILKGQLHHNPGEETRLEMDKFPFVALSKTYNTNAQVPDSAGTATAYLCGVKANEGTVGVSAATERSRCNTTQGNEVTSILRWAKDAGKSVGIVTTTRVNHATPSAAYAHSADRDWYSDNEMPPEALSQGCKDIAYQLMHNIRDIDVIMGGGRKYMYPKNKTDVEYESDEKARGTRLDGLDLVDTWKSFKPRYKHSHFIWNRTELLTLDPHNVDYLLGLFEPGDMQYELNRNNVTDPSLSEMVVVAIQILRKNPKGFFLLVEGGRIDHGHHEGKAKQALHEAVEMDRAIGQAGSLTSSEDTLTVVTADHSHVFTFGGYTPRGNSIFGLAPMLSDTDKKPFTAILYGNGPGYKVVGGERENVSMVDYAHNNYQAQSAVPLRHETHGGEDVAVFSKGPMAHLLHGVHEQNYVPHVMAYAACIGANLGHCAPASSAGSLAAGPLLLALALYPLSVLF

## CCCCCCn1c(=O)c(C(=O)Nc2nnc(C)s2)c(O)c2ccccc21
[1]
  CC50: > 40 µM (active)
[2]
  IC50: 22.6 µM (active)

## Cc1ccc2cc(CCNC(=O)c3ccc(S(=O)(=O)N4CCCCC4)cc3)c(O)nc2c1
[3]
  IC50: 8.17 µM (active)

## Cc1ccc(C(=O)OCC(=O)N(CC(C)C)c2c(N)n(Cc3ccccc3)c(=O)[nH]c2=O)o1
[4]
  IC50: > 80 µM (inactive)

## O=S1(=O)CC2N=C(N(Cc3ccc(F)cc3Cl)c3ccccc3F)SC2C1 (centres undefined)
[5]
  EC50: > 79.4 µM (not active)
[6]
  EC50: > 79.4 µM (not active)
[7]
  EC50: > 79.4 µM (not active)

## CC(=O)C1=C(C)OC(N)=C(C#N)C1c1ccco1 (centres undefined)
[8]
  IC50: > 6.25 µM (inactive)

## COc1ccc(N2C(=O)C[S+]([O-])C(c3ccccc3)C2=O)cc1 (centres undefined)
[9]
  IC50: > 100 µM (inactive)
[10]
  IC50: 7.26 µM (active)

## CCOC(=O)c1ccc(-c2ccc(C(=O)Nc3cccnc3)o2)cc1
[1]
  CC50: 29.7 µM (active)
[2]
  IC50: 7.87 µM (active)

## CSc1nc2n(n1)C(c1ccccn1)C1=C(O)CC(C)(C)CC1=N2 (centres undefined)
[8]
  IC50: > 100 µM (inactive)

## Cc1ccc(C)n1-c1sccc1C(=O)O
[8]
  IC50: 0.783 µM (active)
[11]
  IC50: 4.48 µM (active)
[12]
  IC50: 6.1 µM (not active)
[13]
  IC50: 46.9 µM (active)

## COc1cccc(/C=C/C2=CC3(C)CC2(C)C(c2cccc(OC)c2)CC3=O)c1 (centres undefined)
[14]
  AC50: 3.16 µM (inconclusive)

## O=C(c1ccc(S(=O)(=O)c2ccccc2Cl)c([N+](=O)[O-])c1)N1CCN(Cc2ccccc2)CC1
[15]
  EC50: 12.9 µM (active)
[16]
  IC50: 4.59 µM (active)
[17]
  IC50: 17.6 µM (active)
[18]
  EC50: 11.8 µM (active)
[19]
  IC50: 5.54 µM (active)
[20]
  IC50: > 20 µM (inactive)
[21]
  IC50: 6.58 µM (active)
[22]
  IC50: 3.65 µM (active)
[23]
  AC50: 5.77 µM (active)
[24]
  AC50: 50 µM (active)
[25]
  AC50: 3.48 µM (active)
[26]
  IC50: 15.3 µM (active)

## Cc1ccc(Nc2ccccc2N)cc1
[1]
  CC50: > 40 µM (active)
[27]
  IC50: 21.9 µM (active)
[2]
  IC50: 0.74 µM (active)

## COC(=O)c1ccc(NCc2cc(O)ccc2O)cc1
[3]
  IC50: 12.2 µM (active)

## CCCCN1C(=O)/C(=N\Nc2ccccc2C)c2ccccc21
[28]
  IC50: 74.4 µM (active)
[29]
  IC50: 78 µM (active)

## Cc1nc2c(O)c3c(c(O)c2nc1C)C1C=CC3CC1
[3]
  IC50: 2.23 µM (active)

## O=[N+]([O-])c1cccc(/C=N/n2c(S)nnc2COc2ccccc2)c1
[9]
  IC50: > 100 µM (inactive)
[10]
  IC50: 5.51 µM (active)
